Source: PubChem BioAssay (NCI)
Values joined by “and” are separate entries in the source; they are usually repeats but may differ in a detail not shown here. Identical values can stand only once.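 Five compound concentrations were applied to cells in 96-well plates for 48 hours; endpoints were derived by simple linear interpolation of the resulting dose-response curve. Here, GI50 denotes the concentration required for 50% inhibition of growth. TGI: concentration producing complete growth inhibition.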

Experiments:
Assay in all cases: NCI tumour cell line growth inhibition, 48 h
LOX IMVI melanoma = tested on: LOX IMVI melanoma
NCI-H460 lung = tested on: NCI-H460 lung
SK-MEL-28 melanoma = tested on: SK-MEL-28 melanoma
U251 CNS = tested on: U251 CNS
OVCAR-5 ovarian = tested on: OVCAR-5 ovarian
UACC-257 melanoma = tested on: UACC-257 melanoma
NCI/ADR-RES ovarian = tested on: NCI/ADR-RES ovarian
DU-145 prostate = tested on: DU-145 prostate
A498 renal = tested on: A498 renal
EKVX NSCLC = tested on: EKVX NSCLC

Row | SMILES | GI50 (LOX IMVI melanoma) [nM] | TGI (LOX IMVI melanoma) [µM] | GI50 (NCI-H460 lung) [µM] | TGI (NCI-H460 lung) | GI50 (SK-MEL-28 melanoma) [µM] | TGI (SK-MEL-28 melanoma) [µM] | GI50 (U251 CNS) [nM] | TGI (U251 CNS) [µM] | GI50 (OVCAR-5 ovarian) [µM] | TGI (OVCAR-5 ovarian) [µM] | GI50 (UACC-257 melanoma) [µM] | TGI (UACC-257 melanoma) [µM] | GI50 (NCI/ADR-RES ovarian) [µM] | TGI (NCI/ADR-RES ovarian) [µM] | GI50 (DU-145 prostate) [µM] | TGI (DU-145 prostate) [µM] | GI50 (A498 renal) [µM] | TGI (A498 renal) [µM] | GI50 (EKVX NSCLC) [µM] | TGI (EKVX NSCLC) [µM]
1 | COc1ccc(Cn2cc3c(c2-c2ccc(O)cc2)CCc2cnoc2-3)cc1 | 713 | 18.8 | 0.321 | 4.45 µM | 0.616 | 21.7 | 447 | 15.1 | 0.829 | 21.6 | 13.7 | 30.6 | 0.19 | 0.946 | 0.365 | 5.14 | 0.203 | 0.766 | 0.438 | 26.9
2 | N#CCC12CC=CCC1=C(O)C(=O)c1ccc(O)cc12 (stereo not drawn) | – | > 100 | – | > 100 µM | – | > 100 | – | > 100 | – | > 100 | – | > 100 | – | > 100 | – | > 100 | – | > 100 | – | > 100
3 | CO/N=C(\COc1ccc2c(c1)oc(=O)c1cc(OC)ccc12)c1cccc(OC)c1 | > 100000 | > 100 | > 100 | > 100 µM | > 100 | > 100 | > 100000 | > 100 | > 100 | > 100 | > 100 | > 100 | > 100 | > 100 | > 100 | > 100 | 80.2 | > 100 | > 100 | > 100
4 | CC1(C)N=C(N)N=C(N)N1c1ccc(OCC(=O)N2CCOCC2)c(Cl)c1 | 545 | > 100 | 0.362 | > 100 µM | 30.1 | > 100 | 1160 | > 100 | 84.4 | > 100 | > 100 | > 100 | > 100 | > 100 | 0.994 | > 100 | > 100 | > 100 | 2.29 | > 100
5 | Cc1[nH]n(-c2ccc(S(=O)(=O)O)cc2)c(=O)c1N=Nc1ccccc1 | – | > 100 | – | > 100 µM | – | > 100 | – | > 100 | – | > 100 | – | > 100 | – | > 100 | – | > 100 | – | > 100 | – | > 100
6 | COc1cc(C(=O)N2CCN(c3ccccc3OC)CC2)c(N)cc1OCc1ccccc1 | 27200 | 71.3 | 33.1 | > 100 µM | 43.4 | > 100 | 41800 | > 100 | 80.6 | > 100 | 39 | > 100 | 33.5 | > 100 | 42 | > 100 | 30.6 | 81.2 | 35.7 | > 100
7 | Oc1ccc2ccccc2c1C(c1ccc(Cl)cc1)c1c(O)ccc2ccccc12 | – | 8.11 | – | 11.3 µM | – | 15.9 | – | 12.9 | – | 12 | – | 15.9 | – | 9.46 | – | 12.4 | – | 9.36 | – | 7.58
8 | Cc1ccc(NSc2ccccc2[N+](=O)[O-])cc1 | 912 | 18.5 | 0.432 | 11.1 µM | 7.71 | 26.4 | 768 | 16.3 | 3.42 | 20.9 | 17.4 | 36.7 | 0.148 | 14.3 | 0.984 | 15.3 | 0.186 | 3.75 | 2.89 | 22.4
9 | Cc1cc(O)ccc1O | 13700 | 27.4 | 45.4 | > 100 µM | 30.6 | > 100 | 32800 | > 100 | 16.6 | 32.1 | 43.1 | > 100 | 23.5 | > 100 | 17.4 | 31.6 | 79.9 | > 100 | 36.9 | > 100
10 | CC(C)(C)c1cn2cccc(C(=O)N3CCN(CC(=O)Nc4ccc(Cl)cc4C(=O)c4ccccc4Cl)CC3)c2n1 | 11000 | 23.9 | 5.79 | 23 µM | 11 | 28.8 | 7680 | 25.5 | 16.1 | 44.9 | 3.51 | 23.5 | 6.7 | > 100 | 11.7 | 27.5 | 3.48 | 9.38 | 5.79 | 66.7
11 | C/C1=C\CC[C@@]2(C)O[C@@H]2C[C@@H]2[C@H](C/C(C)=C/CC1)OC(=O)C21CCN=N1 (stereo partly drawn) | – | 75 | > 100 | 75 µM and > 100 µM | > 100 | > 100 | > 100000 | > 100 | > 100 | > 100 | > 100 | > 100 | > 100 | > 100 | > 100 | > 100 | – | > 100 | > 100 | > 100
12 | CO/N=C(\COc1ccc2c(c1)oc(=O)c1cc(OC)ccc12)c1ccc(F)cc1 | 26000 | 72.9 | 23.8 | > 100 µM | 87.3 | > 100 | 20300 | 40.4 | 29.4 | 83.4 | 45.5 | > 100 | 17.6 | 35.6 | 22.8 | 62.2 | 22.3 | 93.5 | 35.2 | > 100
13 | O=C(N/N=c1/ccoc2cccnc12)N1CCN(c2ncccn2)CC1 | < 15.8 | 5.12 | 0.0896 | 11.1 µM | 0.996 | 13.3 | 77.7 | 9.15 | 1.5 | 38.3 | 0.0387 | 5.15 | < 0.0193 | 12.3 | 0.796 | 13.1 | 0.503 | 2.87 | 0.16 | 10.6
14 | CNc1cccnc1/C=N/NC(N)=S | – | > 10 | – | > 10 µM | – | > 10 | – | > 10 | – | 9.78 | – | > 10 | – | 9.94 | – | 3.89 | – | > 10 | – | > 10
15 | CC(=O)c1c(O)ccc2c(C)c(C(=O)O)oc12 | > 100000 | > 100 | > 100 | > 100 µM | > 100 | > 100 | > 100000 | > 100 | > 100 | > 100 | > 100 | > 100 | > 100 | > 100 | > 100 | > 100 | > 100 | > 100 | > 100 | > 100
16 | COc1cc(OC)c2cc(C(=O)O)c(=O)oc2c1 | > 100000 | > 100 | > 100 | > 100 µM | > 29.5 | > 100 | > 100000 | > 100 | > 100 | > 100 | > 85.9 | > 100 | > 100 | > 100 | > 100 | > 100 | > 21.4 | > 75 | > 100 | > 100
17 | CS(=O)(=O)Nc1cccc(-c2ccc3c(NC(=O)C4CC4)n[nH]c3c2)c1 | 1820 | > 25 | 7.76 | > 25 µM | 3.4 | > 25 | 1490 | > 25 | 12.7 | > 25 | > 25 | > 25 | 6.45 | > 25 | 6.82 | > 25 | 4.32 | > 25 | > 24.1 | > 25
18 | CC(C)=CCc1ccc(O)c(=O)cc1C(C)C | 327 | > 22.9 | 0.42 | > 33.1 µM | 0.917 | > 100 | 472 | > 100 | 3.39 | > 100 | 1.59 | > 100 | 0.336 | 2.74 | 0.889 | > 100 | 5.18 | 64.7 | 0.831 | > 100
19 | N#Cc1c(-c2ccc(Cl)cc2)c(-c2ccc(Cl)cc2)nn(CCOC(=O)CCC(=O)O)c1=O | – | > 84.3 | – | 32.5 µM | – | > 85.6 | – | 40.3 | – | > 100 | – | > 100 | – | > 12.9 | – | 6.86 | – | 9.23 | – | > 100
20 | Cc1cc(NCCCCNc2ccnc3cc(Cl)ccc23)nc(Nc2ccc(C(=O)N3CCCC3)cc2)n1 | 1480 | 3.05 | 1.96 | 4.98 µM | 2 | 4.12 | 2080 | 4.8 | 4.29 | 18 | 2.09 | 4.19 | 16.4 | 72.8 | 3.49 | 13.4 | 1.51 | 7.09 | 4.28 | 15.6
21 | O=C1c2cccc3cccc(c23)C(=O)N1CCCCN1CCN(CCCCOc2ccc(-c3nc4ccc(N5CCOCC5)cc4[nH]3)cc2)CC1 | 9780 | > 100 | > 100 | > 100 µM | 66 | > 100 | 7930 | > 100 | > 100 | > 100 | 15 | > 100 | > 100 | > 100 | > 100 | > 100 | > 100 | > 100 | > 100 | > 100
22 | CN1C(=O)c2cc([N+](=O)[O-])ccc2[C@H]2C(=O)c3cc4c(cc3[C@H]21)OCO4 | 16.1 | 0.155 | 0.0285 | 0.195 µM | 0.25 | > 32.4 | 19.1 | 0.162 | 0.299 | 0.926 | 0.139 | 3.3 | 0.0684 | 15.2 | 0.0506 | 14.9 | 0.257 | 0.528 | 0.993 | > 24.5
23 | O=C1Nc2ccccc2/C1=C/c1ccccc1 | – | 27.6 | – | 38.5 µM | – | 44.4 | – | 30 | – | 34.5 | – | 29 | – | 70.6 | – | 27.4 | – | 30.5 | – | 28.8
24 | CCCC(=O)Nc1cc([N+](=O)[O-])c([N+](=O)[O-])cc1OC | – | > 100 | – | 35.4 µM | – | 32.2 | – | 29.8 | – | > 100 | – | 35.4 | – | > 100 | – | 31.6 | – | 32.5 | – | 31.8
25 | O=c1oc2ccc(F)cc2c(=O)n1-c1ccc(Cl)cc1F | 527 | 6.97 | 0.619 | 12.2 µM | 0.456 | 2.92 | 868 | > 59.8 | 3.73 | > 100 | 0.66 | 4.54 | 1.18 | 9.31 | 1.1 | 22 | 0.24 | 0.796 | 1.61 | 8.14
26 | CC1CC(C)/C(=N/NC(N)=O)C(C(O)CC2CCC(=O)NC2=O)C1 (stereo not drawn) | 2480 | > 100 | 4 | > 100 µM | 3.91 | > 100 | 1960 | 91.1 | 3.73 | 86.2 | 3.48 | 50.4 | 3.66 | > 100 | 3.78 | 52.6 | 4.94 | 92.4 | 2.3 | 22.6
27 | COC(=O)c1cc2c3ccccc3n3c(=O)c4cc5cc(OC)c(N(S(=O)(=O)c6ccc(C)cc6)S(=O)(=O)c6ccc(C)cc6)cc5nc4c(n1)c23 | 23500 | > 100 | > 100 | > 100 µM | > 100 | > 100 | 2620 | 13.4 | > 100 | > 100 | > 100 | > 100 | > 100 | > 100 | 32 | > 100 | 10.2 | 29.6 | 39.2 | > 100
